{"source": "patent US20240024273A1", "about": "“TOPICAL ADMINISTRATION OF 2-(DIETHYLAMINO)ETHYL 2-(4-ISOBUTYLPHENYL)PROPRIONATE FOR TREATMENT OF DISEASES” (TECHFIELDS PHARMA CO., LTD., priority 2020, published 2024)", "key": {"[1]": {"test": "Phase 1 clinical study: plasma pharmacokinetics of prodrug and ibuprofen", "assay_type": "in vivo, human", "conditions": "for Tmax: read-out: prodrug Tmax, median (range); for half-life: read-out: prodrug t1/2 (converted); for AUC0-12: read-out: prodrug AUC0-12; for AUC(0-t): read-out: prodrug AUClast; for Cmax: read-out: prodrug Cmax", "procedure": "Following a 5-day washout period, 2-(diethylamino)ethyl 2-(4-isobutylphenyl)propionate was administered b.i.d. during Days 6-11, and a morning dose only was administered to Day 12. Blood samples were collected for PK analysis over the 120-hour post-dose period following the Day 12 dose. Additionally, pre-dose blood samples were collected on Day 7 through Day 11 to evaluate steady-state status.\nThe same study procedures were followed as described in Part 1.\nFor single dose PK, serial blood samples were collected on Day 1 dose at the following time points: 0 (pre-dose), 0.25, 0.5, 0.75, 1, 1.5, 2, 2.5, 3, 4, 5, 6, 8, 10, 12, 18, 24, 48, 72, 96 and 120 hours post-dose.\nFor multiple-dose PK, serial blood samples were collected on Day 12 at the following time points: 0 (pre-dose), 0.25, 0.5, 0.75, 1, 1.5, 2, 2.5, 3, 4, 5, 6, 8, 10, 12, 18, 24, 48, 72, 96 and 120 hours post-dose.\nThe relative bioavailability of the single dose 70 mg topical application vs. 70 mg spray application was determined based on AUCtau, AUCinf and Cmax. The 90% confidence intervals (CIs) on the ratio of topical application vs. spray application were calculated."}, "Osteoarthritis": {"test_system": "Osteoarthritis", "test": "Phase 2 study: effect of treatment on sign and symptoms of osteoarthritis at 12 weeks (re-analysis, all patients taken as active)", "assay_type": "in vivo, human", "conditions": "for difference from placebo, sign and symptoms of OA: placebo effect assumed −6.1; for Mean ± SEM WOMAC Osteoarthritis Index Composite Score Change from Baselines / Mean ± SEM WOMAC Osteoarthritis Index Composite Score Change from Baselines, adjusted by […] of the testing drug amount: scale 0 to 100", "source_text": "(William G. Bensen, Justus J. Fiechtner, James 1. McMillen, et. al. Treatment of Osteoarthritis with Celecoxib. Mayo Clin Proc, November 1999. Vol 74, 1095-1105.)"}, "[2]": {"test": "In vitro half-life in plasma", "assay_type": "in vitro ADME"}, "[3]": {"conditions": "human, plasma, topical, 70 mg, Day 1, 70 mg spray"}, "[4]": {"conditions": "human, plasma, topical, 70 mg, Day 12, 70 mg b.i.d. spray"}}, "note": "Where two headings read alike, the source gives them in different places.", "data": [{"smiles": "CCN(CC)CCOC(=O)C(C)c1ccc(CC(C)C)cc1", "note": "(stereo not drawn) [2-(diethylamino)ethyl 2-(4-isobutylphenyl)propionate]", "values": [{"measurement": "Tmax", "setting": "[1]; human, plasma, topical or ocular, 280 mg, Day 12, 280 mg b.i.d. topical", "value": 0.25, "unit": "h"}, {"measurement": "half-life", "setting": "[1]; human, plasma, topical or ocular, Day 12, 17.5 mg b.i.d. topical", "value": 28.8, "unit": "h"}, {"measurement": "half-life", "setting": "[1]; human, plasma, topical or ocular, Day 12, 70 mg b.i.d. topical", "value": 10.6, "unit": "h"}, {"measurement": "half-life", "setting": "[1]; human, plasma, topical or ocular, Day 12, 140 mg b.i.d. topical", "value": 17.4, "unit": "h"}, {"measurement": "AUC(0-inf)", "setting": "[1]; human, plasma, topical or ocular, Day 12, 280 mg b.i.d. topical, read-out: prodrug AUCinf", "value": 18.1, "unit": "ng·h/mL"}, {"measurement": "half-life", "setting": "[1]; human, plasma, topical or ocular, Day 12, 280 mg b.i.d. topical", "value": 37.8, "unit": "h"}, {"measurement": "AUC0-12", "setting": "[1]; [3]", "value": 0.514, "unit": "ng·h/mL"}, {"measurement": "AUC(0-t)", "setting": "[1]; [3]", "value": 0.947, "unit": "ng·h/mL"}, {"measurement": "Cmax", "setting": "[1]; [3]", "value": 0.119, "unit": "ng/mL"}, {"measurement": "Tmax", "setting": "[1]; [3]", "value": 10, "unit": "h"}, {"measurement": "AUC0-12", "setting": "[1]; [4]", "value": 1.06, "unit": "ng·h/mL"}, {"measurement": "AUC(0-t)", "setting": "[1]; [4]", "value": 2.62, "unit": "ng·h/mL"}, {"measurement": "Cmax", "setting": "[1]; [4]", "value": 0.185, "unit": "ng/mL"}, {"measurement": "Tmax", "setting": "[1]; [4]", "value": 3, "unit": "h"}, {"measurement": "relative bioavailability of spray vs topical application (plasma ibuprofen)", "setting": "[1]; single application, 70 mg", "value": "lower"}, {"measurement": "time by which all subjects had measurable plasma prodrug levels", "setting": "[1]; topical application", "value": "≤ 3", "unit": "hours post-dose"}, {"measurement": "difference from placebo, sign and symptoms of OA", "setting": "Osteoarthritis; 8.75 mg BID, Week 12", "value": "−13.4"}, {"measurement": "adjusted best result relative to Celecoxib (100 mg, BID)", "setting": "Osteoarthritis; 17.5 mg BID", "value": 6, "unit": "times"}, {"measurement": "best result relative to Celecoxib (100 mg, BID)", "setting": "Osteoarthritis; 17.5 mg BID", "value": 3, "unit": "times"}, {"measurement": "difference from placebo, adjusted by […] of the testing drug", "setting": "Osteoarthritis; 17.5 mg BID, Week 12", "value": "−43.5"}, {"measurement": "difference from placebo, sign and symptoms of OA", "setting": "Osteoarthritis; 17.5 mg BID, Week 12", "value": "−22.8"}, {"measurement": "difference from placebo, sign and symptoms of OA", "setting": "Osteoarthritis; 35 mg BID, Week 12", "value": "−16.9"}, {"measurement": "Mean ± SEM WOMAC Osteoarthritis Index Composite Score Change from Baselines", "setting": "Osteoarthritis; 2 sprays/knee (8.75 mg, BID) transdermally, Follow-up (Week13)", "value": "−18.4 ± 3.20"}, {"measurement": "Mean ± SEM WOMAC Osteoarthritis Index Composite Score Change from Baselines", "setting": "Osteoarthritis; 2 sprays/knee (8.75 mg, BID) transdermally, Week 2", "value": "−11.1 ± 2.50"}, {"measurement": "Mean ± SEM WOMAC Osteoarthritis Index Composite Score Change from Baselines", "setting": "Osteoarthritis; 2 sprays/knee (8.75 mg, BID) transdermally, Week 4", "value": "−18.0 ± 2.50"}, {"measurement": "Mean ± SEM WOMAC Osteoarthritis Index Composite Score Change from Baselines", "setting": "Osteoarthritis; 2 sprays/knee (8.75 mg, BID) transdermally, Week 8", "value": "−18.1 ± 2.92"}, {"measurement": "Mean ± SEM WOMAC Osteoarthritis Index Composite Score Change from Baselines", "setting": "Osteoarthritis; 2 sprays/knee (8.75 mg, BID) transdermally, Week 12", "value": "−19.5 ± 3.18"}, {"measurement": "Mean ± SEM WOMAC Osteoarthritis Index Composite Score Change from Baselines, adjusted by […] of the testing drug amount", "setting": "Osteoarthritis; 2 sprays/knee (8.75 mg, BID), Follow-up (Week 13)", "value": "−31.6 ± 5.49"}, {"measurement": "Mean ± SEM WOMAC Osteoarthritis Index Composite Score Change from Baselines, adjusted by […] of the testing drug amount", "setting": "Osteoarthritis; 2 sprays/knee (8.75 mg, BID), Week 2", "value": "−19.0 ± 4.29"}, {"measurement": "Mean ± SEM WOMAC Osteoarthritis Index Composite Score Change from Baselines, adjusted by […] of the testing drug amount", "setting": "Osteoarthritis; 2 sprays/knee (8.75 mg, BID), Week 4", "value": "−30.9 ± 4.29"}, {"measurement": "Mean ± SEM WOMAC Osteoarthritis Index Composite Score Change from Baselines, adjusted by […] of the testing drug amount", "setting": "Osteoarthritis; 2 sprays/knee (8.75 mg, BID), Week 8", "value": "−31.0 ± 5.01"}, {"measurement": "Mean ± SEM WOMAC Osteoarthritis Index Composite Score Change from Baselines, adjusted by […] of the testing drug amount", "setting": "Osteoarthritis; 2 sprays/knee (8.75 mg, BID), Week 12", "value": "−33.4 ± 5.45"}, {"measurement": "Mean ± SEM WOMAC Osteoarthritis Index Composite Score Change from Baselines", "setting": "Osteoarthritis; 4 sprays/knee (17.5 mg, BID) transdermally, Follow-up (Week13)", "value": "−23.4 ± 3.52"}, {"measurement": "Mean ± SEM WOMAC Osteoarthritis Index Composite Score Change from Baselines", "setting": "Osteoarthritis; 4 sprays/knee (17.5 mg, BID) transdermally, Week 2", "value": "−15.1 ± 2.89"}, {"measurement": "Mean ± SEM WOMAC Osteoarthritis Index Composite Score Change from Baselines", "setting": "Osteoarthritis; 4 sprays/knee (17.5 mg, BID) transdermally, Week 4", "value": "−21.3 ± 3.32"}, {"measurement": "Mean ± SEM WOMAC Osteoarthritis Index Composite Score Change from Baselines", "setting": "Osteoarthritis; 4 sprays/knee (17.5 mg, BID) transdermally, Week 8", "value": "−24.8 ± 3.26"}, {"measurement": "Mean ± SEM WOMAC Osteoarthritis Index Composite Score Change from Baselines", "setting": "Osteoarthritis; 4 sprays/knee (17.5 mg, BID) transdermally, Week 12", "value": "−28.9 ± 3.38"}, {"measurement": "Mean ± SEM WOMAC Osteoarthritis Index Composite Score Change from Baselines, adjusted by […] of the testing drug amount", "setting": "Osteoarthritis; 4 sprays/knee (17.5 mg, BID), Follow-up (Week 13)", "value": "−40.1 ± 6.04"}, {"measurement": "Mean ± SEM WOMAC Osteoarthritis Index Composite Score Change from Baselines, adjusted by […] of the testing drug amount", "setting": "Osteoarthritis; 4 sprays/knee (17.5 mg, BID), Week 2", "value": "−25.9 ± 4.96"}, {"measurement": "Mean ± SEM WOMAC Osteoarthritis Index Composite Score Change from Baselines, adjusted by […] of the testing drug amount", "setting": "Osteoarthritis; 4 sprays/knee (17.5 mg, BID), Week 4", "value": "−36.5 ± 5.69"}, {"measurement": "Mean ± SEM WOMAC Osteoarthritis Index Composite Score Change from Baselines, adjusted by […] of the testing drug amount", "setting": "Osteoarthritis; 4 sprays/knee (17.5 mg, BID), Week 8", "value": "−42.5 ± 5.59"}, {"measurement": "Mean ± SEM WOMAC Osteoarthritis Index Composite Score Change from Baselines, adjusted by […] of the testing drug amount", "setting": "Osteoarthritis; 4 sprays/knee (17.5 mg, BID), Week 12", "value": "−49.6 ± 5.80"}, {"measurement": "Mean ± SEM WOMAC Osteoarthritis Index Composite Score Change from Baselines", "setting": "Osteoarthritis; 8 sprays/knee (35 mg, BID) transdermally, Follow-up (Week13)", "value": "−22.1 ± 3.23"}, {"measurement": "Mean ± SEM WOMAC Osteoarthritis Index Composite Score Change from Baselines", "setting": "Osteoarthritis; 8 sprays/knee (35 mg, BID) transdermally, Week 2", "value": "−11.7 ± 2.88"}, {"measurement": "Mean ± SEM WOMAC Osteoarthritis Index Composite Score Change from Baselines", "setting": "Osteoarthritis; 8 sprays/knee (35 mg, BID) transdermally, Week 4", "value": "−17.0 ± 2.96"}, {"measurement": "Mean ± SEM WOMAC Osteoarthritis Index Composite Score Change from Baselines", "setting": "Osteoarthritis; 8 sprays/knee (35 mg, BID) transdermally, Week 8", "value": "−21.7 ± 3.28"}, {"measurement": "Mean ± SEM WOMAC Osteoarthritis Index Composite Score Change from Baselines", "setting": "Osteoarthritis; 8 sprays/knee (35 mg, BID) transdermally, Week 12", "value": "−23.0 ± 3.27"}, {"measurement": "Mean ± SEM WOMAC Osteoarthritis Index Composite Score Change from Baselines, adjusted by […] of the testing drug amount", "setting": "Osteoarthritis; 8 sprays/knee (35 mg, BID), Follow-up (Week 13)", "value": "−37.9 ± 5.54"}, {"measurement": "Mean ± SEM WOMAC Osteoarthritis Index Composite Score Change from Baselines, adjusted by […] of the testing drug amount", "setting": "Osteoarthritis; 8 sprays/knee (35 mg, BID), Week 2", "value": "−20.1 ± 4.94"}, {"measurement": "Mean ± SEM WOMAC Osteoarthritis Index Composite Score Change from Baselines, adjusted by […] of the testing drug amount", "setting": "Osteoarthritis; 8 sprays/knee (35 mg, BID), Week 4", "value": "−29.2 ± 5.08"}, {"measurement": "Mean ± SEM WOMAC Osteoarthritis Index Composite Score Change from Baselines, adjusted by […] of the testing drug amount", "setting": "Osteoarthritis; 8 sprays/knee (35 mg, BID), Week 8", "value": "−37.2 ± 5.63"}, {"measurement": "Mean ± SEM WOMAC Osteoarthritis Index Composite Score Change from Baselines, adjusted by […] of the testing drug amount", "setting": "Osteoarthritis; 8 sprays/knee (35 mg, BID), Week 12", "value": "−39.5 ± 5.61"}, {"measurement": "fraction metabolized to ibuprofen in any human tissue (except skin)", "setting": "[2]", "value": "> 99.9", "unit": "%"}, {"measurement": "half-life", "setting": "[2]; in plasma, read-out: in vitro T1/2", "value": "~4", "unit": "min"}]}]}
